Measurements: patent publication US20100173972A1, “METHODS AND USES RELATED TO RHBDL4” (MEDICAL RESEARCH COUNCIL, priority 2007, published 2010)
One block for each molecule: values may come before it. Where a SMILES comes first, the peptide text is derived from it. The star is where a group is joined. Decanoyl = CCCCCCCCCC(=O)*; Cbz = O=C(OCc1ccccc1)*; CH2Cl = ClC*

Assays:
[1] = test system: HB-EGF shedding, COS-7 cells; experiment: HB-EGF secretion in COS-7 cells overexpressing the bombesin receptor; type: cell-based, green monkey
Protocol: Cells were propagated in DMEM supplemented with 10% fetal calf serum. COS-7 cells were transfected in 35 mm wells with FuGENE 6 (Roche) as described (7). In brief, 250 ng plasmid encoding the substrate (as indicated in the description of the figures), 25 ng for the rhomboid tested, 50 ng for the GRP receptor and empty plasmid to bring the total DNA to 1 μg was used. […] Transfection efficiency was monitored by co-transfection of pEGFP (Invitrogen). Sixteen hours post transfection, medium was replaced with serum-free medium containing 10 μM BB94 (British Biotech) unless otherwise stated. For activation of endogenous rhomboid activity, phorbol 12-myristate 13-acetate (PMA) (1 μM, from Sigma) or bombesin (100 nM, from Sigma) was added to the cell medium. For inhibitor studies, the indicated protease inhibitors (from Calbiochem), diluted from a stock solution in DMSO, were compared with a carrier only. […] Cells were solubilized in SDS-sample buffer and analyzed by SDS-PAGE. […] Conditioned media were centrifuged for 10 minutes at full speed in a microfuge to remove cell debris, and subsequently proteins in the supernatant were precipitated by adding trichloroacetic acid (TCA) to 10%. The precipitate was recovered by centrifugation, washed with acetone and dissolved in SDS-PAGE sample buffer and analyzed by SDS-PAGE. […]

[2] = test system: TGFalpha release, HEK293T cells; experiment: Time course after PMA induction of HEK293T cells overexpressing pro-TGFalpha, with protease inhibitors; type: cell-based, human
Protocol: Cell culture and cell-based rhomboid cleavage assay. Cells were propagated in DMEM supplemented with 10% fetal calf serum. COS-7 cells were transfected in 35 mm wells with FuGENE 6 (Roche) as described (7). In brief, 250 ng plasmid encoding the substrate (as indicated in the description of the figures), 25 ng for the rhomboid tested, 50 ng for the GRP receptor and empty plasmid to bring the total DNA to 1 μg was used. For protease titration, 2.5 ng to 250 ng plasmid coding RHBDL4 was used. HeLa and HEK293T were transfected with polyethyleneimine (linear, MW 25000; Polysciences) as described (32) using twice the amount of DNA as used with FuGENE. Transfection efficiency was monitored by co-transfection of pEGFP (Invitrogen). Sixteen hours post transfection, medium was replaced with serum-free medium containing 10 μM BB94 (British Biotech) unless otherwise stated. For activation of endogenous rhomboid activity, phorbol 12-myristate 13-acetate (PMA) (1 μM, from Sigma) or bombesin (100 nM, from Sigma) was added to the cell medium. For inhibitor studies, the indicated protease inhibitors (from Calbiochem), diluted from a stock solution in DMSO, were compared with a carrier only. Medium was harvested typically after 24 to 30 hours; for inhibitor studies using 3,4-Dichloroisocoumarin (DCI) a time course with 0 minutes, 30 minutes and 4 hours was performed (FIG. 4C). Cells were solubilized in SDS-sample buffer and analyzed by SDS-PAGE. EndoH (New England Biolabs) and PNGaseF (New England Biolabs) treatment of SDS-solubilized cell extracts was performed according to the manufacturers instructions. Conditioned media were centrifuged for 10 minutes at full speed in a microfuge to remove cell debris, and subsequently proteins in the supernatant were precipitated by adding trichloroacetic acid (TCA) to 10%. The precipitate was recovered by centrifugation, washed with acetone and dissolved in SDS-PAGE sample buffer and analyzed by SDS-PAGE. Alternatively to TCA precipitation, TGFalpha-H8 in conditioned medium was captured by metal-chelate chromatography using Ni-NTA agarose beads (Qiagen) in the presence of 20 mM imidazole at pH 8.0. Subsequently beads were washed with 20 mM Tris-Cl pH 8.0, 50 mM imidazole, eluted with SDS-sample buffer and analyzed by SDS-PAGE and Western blotting (see below). Typically, from a 35 mm tissue culture dish, 10% of cell extracts and 20% of tissue culture supernatant were loaded. To increase the sensitivity, for experiments shown in FIGS. 1C, 3E, 4A and 4C, five times the amount of the media fractions were loaded.
(§1) Western blotting. Proteins were analyzed by 4-20% Tris-Glycine gradient gels (Invitrogen) followed by Western blot analysis using either anti FLAG M2-HRP (1:1000; Sigma), anti HA antibody 16B12 (1:1000; Covance), anti actin antibody ab8227 (1:5000; Abcam) or affinity purified polyclonal rabbit antibody anti RHBDL4 (1:4000; see above). In order to detect the 6 kDa form of TGFalpha, proteins were transferred on PVDF membrane with 0.2 μm pore size (Millipore) and probed with 1:100 anti TGFalpha antibody 134A-2B3 (Oncogene). For the detection of phosphorylated EGFR, PVDF membranes were blocked in 3% BSA in TBS-Tween supplemented with 200 μM NaVO3. Protein was detected with anti phospho-EGFR antibody 9H2 (1:2000, Upstate). […] Bound antibodies were detected by incubation with secondary antibody (Santa Cruz Biotechnology) followed by enhanced chemiluminescence (Amersham Biosciences).

mouse RHBDL4 = target: T1, mouse RHBDL4 (Mus musculus, UniProt Q8BHC7); experiment: Cell-based rhomboid cleavage assay: pro-TGFalpha cleavage by overexpressed RHBDL4; parameters: expressed in transfected cells; host or cells: COS-7 (also HeLa and HEK293T), pcDNA3.1
T1 sequence (Q8BHC7 1-315): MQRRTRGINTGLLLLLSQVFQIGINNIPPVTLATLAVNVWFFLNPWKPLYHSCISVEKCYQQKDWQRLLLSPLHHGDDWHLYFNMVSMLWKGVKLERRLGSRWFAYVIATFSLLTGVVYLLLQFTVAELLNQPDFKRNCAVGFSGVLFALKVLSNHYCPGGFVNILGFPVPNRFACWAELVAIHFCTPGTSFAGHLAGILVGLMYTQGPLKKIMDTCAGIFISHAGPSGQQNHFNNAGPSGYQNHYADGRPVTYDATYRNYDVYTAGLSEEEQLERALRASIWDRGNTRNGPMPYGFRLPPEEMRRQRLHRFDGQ
Protocol: (§2) Cell culture and cell-based rhomboid cleavage assay. Cells were propagated in DMEM supplemented with 10% fetal calf serum. COS-7 cells were transfected in 35 mm wells with FuGENE 6 (Roche) as described (7). In brief, 250 ng plasmid encoding the substrate (as indicated in the description of the figures), 25 ng for the rhomboid tested, 50 ng for the GRP receptor and empty plasmid to bring the total DNA to 1 μg was used. For protease titration, 2.5 ng to 250 ng plasmid coding RHBDL4 was used. HeLa and HEK293T were transfected with polyethyleneimine (linear, MW 25000; Polysciences) as described (32) using twice the amount of DNA as used with FuGENE. Transfection efficiency was monitored by co-transfection of pEGFP (Invitrogen). […] Cells were solubilized in SDS-sample buffer and analyzed by SDS-PAGE. […] The precipitate was recovered by centrifugation, washed with acetone and dissolved in SDS-PAGE sample buffer and analyzed by SDS-PAGE. […] Subsequently beads were washed with 20 mM Tris-Cl pH 8.0, 50 mM imidazole, eluted with SDS-sample buffer and analyzed by SDS-PAGE and Western blotting (see below). […]
(§3) Western blotting. […] Protein was detected with anti phospho-EGFR antibody 9H2 (1:2000, Upstate). […] Bound antibodies were detected by incubation with secondary antibody (Santa Cruz Biotechnology) followed by enhanced chemiluminescence (Amersham Biosciences).

pro-TGFalpha shedding = experiment: BB94 sensitivity of endogenous pro-TGFalpha shedding and trimming (cell-based cleavage assay)
Protocol: as §2, with “(Invitrogen). Sixteen hours post transfection, medium was replaced with serum-free medium containing 10 μM BB94 (British Biotech) unless otherwise stated. For activation of endogenous rhomboid activity, phorbol 12-myristate 13-acetate (PMA) (1 μM, from Sigma) or bombesin (100 nM, from Sigma) was added to the cell medium.” for “(Invitrogen).”
as §1, with “In order to detect the 6 kDa form of TGFalpha, proteins were transferred on PVDF membrane with 0.2 μm pore size (Millipore) and probed with 1:100 anti TGFalpha antibody 134A-2B3 (Oncogene). For the detection of phosphorylated EGFR, PVDF membranes were blocked in 3% BSA in TBS-Tween supplemented with 200 μM NaVO3.” left out

proteasome = experiment: Proteasome inhibitor treatment of cells expressing pro-TGFalpha; type: cell-based
Protocol: as §2, with “(Invitrogen). Sixteen hours post transfection, medium was replaced with serum-free medium containing 10 μM BB94 (British Biotech) unless otherwise stated. For activation of endogenous rhomboid activity, phorbol 12-myristate 13-acetate (PMA) (1 μM, from Sigma) or bombesin (100 nM, from Sigma) was added to the cell medium.” for “(Invitrogen).”

protein kinase C (PKC) = experiment: PMA-induced TGFalpha shedding (transactivation); type: cell-based; conditions: PMA 1 μM
Protocol: as §2, §3

Drosophila Spitz, Q01083 = target: T2, Drosophila Spitz, Q01083
T2 chain: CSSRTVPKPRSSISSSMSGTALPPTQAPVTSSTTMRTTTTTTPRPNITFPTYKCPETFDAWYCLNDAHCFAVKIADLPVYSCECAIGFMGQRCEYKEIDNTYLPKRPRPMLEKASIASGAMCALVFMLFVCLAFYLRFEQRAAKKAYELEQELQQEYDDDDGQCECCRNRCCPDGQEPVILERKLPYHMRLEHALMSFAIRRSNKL

[3] = target: human pro-TGFalpha, P01135
Sequence of human pro-TGFalpha, P01135 (P01135 whole entry, looked up, the tested form may be a part): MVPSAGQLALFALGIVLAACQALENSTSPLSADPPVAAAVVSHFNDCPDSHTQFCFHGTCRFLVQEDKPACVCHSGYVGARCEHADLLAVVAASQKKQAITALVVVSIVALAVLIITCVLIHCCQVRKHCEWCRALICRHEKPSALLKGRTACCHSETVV

[4] = target: T3, in vitro translated substrate comprising the transmembrane domain of Drosophila Gurken, P42287
T3 chain: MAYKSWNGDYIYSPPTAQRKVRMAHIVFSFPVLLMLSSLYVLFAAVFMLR

[5] = BB94 20 μM, FLAG6-tagged pro-TGFalpha

RHBDL4 cleavage of pro-TGFalpha: sensitivity to inhibitor (mouse RHBDL4; COS-7 cells, BB94 10 μM): insensitive
RHBDL4-triggered TGFalpha release: sensitivity to inhibitor (mouse RHBDL4; HEK293T cells, TGFalpha with juxtamembrane His8-tag): insensitive
Molecule: CNC(=O)[C@H](Cc1ccccc1)NC(=O)[C@H](CC(C)C)[C@H](CSc1cccs1)C(=O)NO [BB94]
Bombesin-enhanced HB-EGF release: sensitivity to inhibitor ([1]; BB94 20 μM, bombesin treatment): insensitivity
HB-EGF shedding by ADAM proteases in unstimulated cells: sensitivity to inhibitor ([1]; unstimulated cells, BB94): sensitive
Release of the 6 kDa form of TGFalpha ([2]; BB94 20 μM, PMA induction, HEK293T): inhibited
Generation of the higher MW forms of TGFalpha by endogenous shedding: sensitivity to inhibitor (pro-TGFalpha shedding; [5]): insensitive
Trimming to smaller intermediates and species lacking the pro-peptide (pro-TGFalpha shedding; [5]): blocked
Processing of the 37 kDa form to the 6 kDa secreted bioactive ligand: sensitivity to inhibitor (pro-TGFalpha shedding; bombesin-treated COS-7 cells overexpressing the bombesin receptor): sensitive

Molecule: CC(C)C[C@@H](C=O)NC(=O)[C@H](CC(C)C)NC(=O)[C@H](CC(C)C)NC(=O)OCc1ccccc1 [MG132] (Cbz-Leu-Leu-Leu-aldehyde)
Effect on pro-TGFalpha forms (proteasomal degradation) (proteasome; 5 μM): led to unglycosylated TGFalpha

Molecule: CCCCCCCCCCCCCC(=O)O[C@@H]1[C@@H](C)[C@@]2(O)[C@@H](C=C(CO)C[C@]3(O)C(=O)C(C)=C[C@@H]23)[C@@H]2C(C)(C)[C@]12OC(C)=O [PMA, phorbol 12-myristate 13-acetate]
BB94-insensitive TGFalpha release activity (protein kinase C (PKC)): induced
BB94-sensitive (metalloprotease dependent) trimming of TGFalpha (protein kinase C (PKC)): enhanced

Molecule: CC(C)C[C@H](CC(=O)NO)C(=O)N[C@H](C(=O)N[C@@H](C)C(=O)NCCN)C(C)(C)C [TAPI-2]
Generation and release of the higher molecular weight form of TGFalpha ([2]; inhibitor 20 μM): none of these inhibitors of known proprotein convertases had an effect

Molecule: CC[C@H](C)[C@H](NC(=O)[C@H]([C@@H](C)CC)N(C)C(C)=O)C(=O)N[C@H](C(=O)N[C@@H](CC(C)C)C(=O)[C@@]1(C)CO1)[C@@H](C)O [epoxomicin]
Effect on pro-TGFalpha forms (proteasomal degradation) (proteasome; 2 μM): led to unglycosylated TGFalpha

Molecule: CCCCCCCCCC(=O)N[C@@H](CCCN=C(N)N)C(=O)N[C@H](C(=O)N[C@@H](CCCCN)C(=O)N[C@@H](CCCN=C(N)N)C(=O)CCl)C(C)C [furin inhibitor I] (Decanoyl-RVKR-CH2Cl)
Generation and release of the higher molecular weight form of TGFalpha ([2]; inhibitor 100 μM): none of these inhibitors of known proprotein convertases had an effect

Molecule: beta-secretase inhibitor IV
Generation and release of the higher molecular weight form of TGFalpha ([2]; inhibitor 10 μM): none of these inhibitors of known proprotein convertases had an effect

B1: mouse RHBDL4 with an N-terminal HA3-tag (protein)
chain: T1 sequence (Q8BHC7 1-315)
cleavage (Drosophila Spitz, Q01083): Note that RHBDL4 cleaves Spitz
cleavage of pro-TGFalpha, titration of protease plasmid (Western blot) [3]: cleavage of TGFalpha requires sub-stoichiometric amounts of RHBDL4

B2: recombinant mouse RHBDL4, C-terminally His6-tagged, from E. coli (protein)
chain: T1 sequence (Q8BHC7 1-315)
in vitro cleavage assay (SDS-PAGE, decrease of intact substrate band) [4]: The substrate was cleaved, as indicated by the decreased amount of intact substrate band

B3: recombinant mouse RHBDL1 from E. coli (protein)
chain: MDRSSLLQLIQEQQLDPENTGFIGADTFAGLVHSHELPLDPTKLDMLVALAQSNERGQVCYQELVDLISSKRSSSFKRAIANGQRALPRDGLLDEPGLSVYKRFVRYVAYEILPCEVDRRWYFYRHRTCPPPVFMASVTLAQIIVFLCYGARLNKWVLQTYHPEYMKSPLVYHPGHRARAWRFLTYMFMHVGLEQLGFNALLQLMIGVPLEMVHGVLRISLLYLAGVLAGSLTVSITDMRAPVVGGSGGVYALCSAHLANVVMNWAGMRCPYKLLRMVLALVCMSSEVGRAVWLRFSPPLPASGPQPSFMAHLAGAVVGVSMGLTILRSYEERLRDQCGWWVVLLAYGTFLLFAIFWNVFAYDLLGADIPPPP
in vitro cleavage assay (SDS-PAGE, decrease of intact substrate band) [4]: The substrate was cleaved, as indicated by the decreased amount of intact substrate band

B4: mouse RHBDL1 with an N-terminal HA3-tag (protein)
chain: B3 chain
secreted 37 kDa product, FLAG6-tagged pro-TGFalpha (Western blot) [3]: overexpression of RHBDL1 caused a minor increase of secreted 37 kDa product

B5: recombinant human RHBDL2 from E. coli (protein)
chain: MAAVHDLEMESMNLNMGREMKEELEEEEKMREDGGGKDRAKSKKVHRIVSKWMLPEKSRGTYLERANCFPPPVFIISISLAELAVFIYYAVWKPQKQWITLDTGILESPFIYSPEKREEAWRFISYMLVHAGVQHILGNLCMQLVLGIPLEMVHKGLRVGLVYLAGVIAGSLASSIFDPLRYLVGASGGVYALMGGYFMNVLVNFQEMIPAFGIFRLLIIILIIVLDMGFALYRRFFVPEDGSPVSFAAHIAGGFAGMSIGYTVFSCFDKALLKDPRFWIAIAAYLACVLFAVFFNIFLSPAN
in vitro cleavage assay (SDS-PAGE, decrease of intact substrate band) [4]: The substrate was cleaved, as indicated by the decreased amount of intact substrate band
